Experimental data taken from patent US20240270801A1, “EPITOPE PEPTIDE OF HUMAN ALPHA-SYNUCLEIN AND PHARMACEUTICAL COMPOSITION INCLUDING SAID PEPTIDE” (Sumitomo Pharma Co., Ltd., priority 2021, published 2024).
Non-standard residues stand in square brackets, D forms with d. No end group written: not given here. KLH = keyhole limpet hemocyanin; Ahx = NCCCCCC(=O)O

Experiments:
[1] = test system: human αSyn; test: Antibody-inducing ability in mice: ELISA antibody titer of immune serum with respect to human αSyn; type: in vivo, mouse; set-up: key to Antibody titer with respect to human αSyn, relative to control: log titer relative to control conjugate (control = 1); settings: for Antibody titer with respect to human αSyn, relative to control / Antibody titer (N = 4 − 6, mean ± standard deviation) with respect to human αSyn: mice; for Antibody titer with respect to human αSyn (N = 4 − 6, mean ± standard deviation): Example 2, serum 2 weeks after second administration; for Antibody titer compared with control conjugate (in words): Example 9, mice, human αSyn and aggregated human αSyn, control AJ-p150 or AJ-p54; for Antibody titer (N = 4 − 6, mean ± standard deviation) with respect to human αSyn: Example 3, same manner as Example 2
Procedure: (§1) Using the various AJ peptide-human αSyn peptide conjugates produced in Example 1, an antibody-inducing ability with respect to human αSyn in mice was evaluated. The various AJ-human αSyn peptide conjugates (250 μg/mouse) or KLH-DMPVDPDN (25 μg/mouse) in physiological saline were intramuscularly administered to balb/c mice (females, 6 weeks old, CLEA Japan, Inc.) twice at a 2-week interval for immunization using aluminum hydroxide (Alum) (InvivoGen, 50 μg/mouse) as an adjuvant. As a negative control, physiological saline (100 μL/mouse) comprising the same amount of aluminum hydroxide was administered twice. Two weeks after the second administration, serum was recovered to evaluate the antibody titer with respect to human αSyn by ELISA.
ELISA was performed by the following method. 96-well plates were coated with human αSyn (Sigma) at 0.2 μg/well. After washing with PBST (Phosphate Buffered Saline comprising 0.05% Tween) once, blocking was performed with 3% skim milk (FUJIFILM Wako Pure Chemical Corporation). After washing with PBST three times, diluted serum was added to cause a reaction at room temperature for 1 hour. Furthermore, after washing with PBST three times, Goat anti-mouse IgG-HRP (abcam) was added to cause a reaction at room temperature for 1 hour. After washing with PBST three times, SureBlue TMB Microwell Peroxidase Substrate (KPL) was added to cause a reaction at room temperature for 10 minutes while light shielding. An equal volume of a TMB Stop Solution (KPL) was added to stop the reaction, and the absorbance at 450 nm was measured. ELISA with respect to aggregated human αSyn was performed by coating with the aggregated human αSyn (Stress Marq) at 15 ng/well instead of human αSyn in the above-mentioned method. […]
The antibody-inducing ability of the produced various human αSyn peptide conjugates with respect to human αSyn and aggregated human αSyn in the mice was evaluated by the method described in Example 2 using the antibody titers with respect to human αSyn and aggregated human αSyn of the mouse immune serum. […] In Table 6, the antibody titer of AJ-p242, AJ-p244, AJ-p347, or AJ-p361 is shown with the antibody titer of AJ-p150 as a control being 1 (logarithm). In addition, the antibody titers of AJ-p229, AJ-p237, and AJ-p298 are shown with the antibody titer of AJ-p54 as a control being 1 (logarithm). […]

[2] = test system: aggregated human αSyn; test: Antibody-inducing ability in mice: ELISA antibody titer of immune serum with respect to aggregated human αSyn; type: in vivo, mouse; settings: for Antibody titer with respect to aggregated human αSyn, relative to control: mice; for Antibody titer with respect to aggregated human αSyn (N = 4 − 6, mean ± standard deviation): Example 2, serum 2 weeks after second administration; for Antibody-inducing ability regarding the aggregated human αSyn (in words): Example 2, balb/c mice
Procedure: as §1
ELISA was performed by the following method. 96-well plates were coated with human αSyn (Sigma) at 0.2 μg/well. After washing with PBST (Phosphate Buffered Saline comprising 0.05% Tween) once, blocking was performed with 3% skim milk (FUJIFILM Wako Pure Chemical Corporation). After washing with PBST three times, diluted serum was added to cause a reaction at room temperature for 1 hour. Furthermore, after washing with PBST three times, Goat anti-mouse IgG-HRP (abcam) was added to cause a reaction at room temperature for 1 hour. After washing with PBST three times, SureBlue TMB Microwell Peroxidase Substrate (KPL) was added to cause a reaction at room temperature for 10 minutes while light shielding. An equal volume of a TMB Stop Solution (KPL) was added to stop the reaction, and the absorbance at 450 nm was measured. ELISA with respect to aggregated human αSyn was performed by coating with the aggregated human αSyn (Stress Marq) at 15 ng/well instead of human αSyn in the above-mentioned method.
The antibody-inducing ability of the AJ-human αSyn peptide conjugates (AJ-p54, AJ-p54-KLH, and AJ-DMPVDPDN) produced in Example 1 with respect to human αSyn and aggregated human αSyn in mice was evaluated. Physiological saline or the AJ-human αSyn peptide conjugate (250 μg/mouse) was intramuscularly administered to balb/c mice (females, 6 weeks old, CLEA Japan, Inc.) twice at a 2-week interval using Alum (InvivoGen, 50 μg/mouse) as an adjuvant. Furthermore, KLH-DMPVDPDN (25 μg/mouse) was administered using Alum (InvivoGen, 50 μg/mouse) as an adjuvant. Two weeks after the second administration, serum was recovered to evaluate the antibody titer by ELISA. ELISA was performed by the method described in Example 2.
The antibody-inducing ability of the produced various human αSyn peptide conjugates with respect to human αSyn and aggregated human αSyn in the mice was evaluated by the method described in Example 2 using the antibody titers with respect to human αSyn and aggregated human αSyn of the mouse immune serum. […] In Table 6, the antibody titer of AJ-p242, AJ-p244, AJ-p347, or AJ-p361 is shown with the antibody titer of AJ-p150 as a control being 1 (logarithm). In addition, the antibody titers of AJ-p229, AJ-p237, and AJ-p298 are shown with the antibody titer of AJ-p54 as a control being 1 (logarithm).
The antibody-inducing ability of the AJ-human αSyn peptide conjugates with a modified linker with respect to human αSyn and aggregated human αSyn in the mice was evaluated using the antibody titers with respect to human αSyn and aggregated human αSyn of the mouse immune serum. […] In Table 8, the antibody titers of the AJ-human αSyn peptide conjugates with various modified linkers comprising p54 are shown with the antibody titer of AJ-p54 as a control being 1 (logarithm). In addition, the antibody titers of the AJ-human αSyn peptide conjugates with various modified linkers comprising p150 are shown with the antibody titer of AJ-p150 as a control being 1 (logarithm).

[3] = Example 10, modified linker, titer of AJ-p54 or AJ-p150 as control being 1 (logarithm)
[4] = balb/c mice, i.m. twice at 2-week interval, Alum, AJ conjugates 250 μg/mouse, KLH-DMPVDPDN 25 μg/mouse
[5] = Example 9, N = 4, titer of AJ-p150 or AJ-p54 as control being 1 (logarithm)
[6] = Example 4, balb/c mice, i.m. twice at 2-week interval, Alum, AJ conjugates 250 μg/mouse, KLH-DMPVDPDN 25 μg/mouse

ELKLIFLHRLKRLRKRLKRKϵKKKKEAYEMPSEE [AJ-εKKKK-p150]
Antibody titer with respect to human αSyn, relative to control [1, 3]: 0.97 | Antibody titer with respect to aggregated human αSyn, relative to control [2, 3]: 1.00

ELKLIFLHRLKRLRKRLKRKGEAYEMPSEE [AJ-G-p150]
Antibody titer with respect to human αSyn, relative to control [1, 3]: 0.96 | Antibody titer with respect to aggregated human αSyn, relative to control [2, 3]: 0.95

ELKLIFLHRLKRLRKRLKRKXKKDQLGANE (ELKLIFLHRLKRLRKRLKRK[Ahx]KKDQLGANE) [AJ-p142]
Antibody titer with respect to human αSyn (N = 4 − 6, mean ± standard deviation) [1, 4]: 4693 ± 6431 | Antibody titer with respect to aggregated human αSyn (N = 4 − 6, mean ± standard deviation) [2, 4]: 576 ± 732

ELKLIFLHRLKRLRKRLKRKXKKDQLGKNEE (ELKLIFLHRLKRLRKRLKRK[Ahx]KKDQLGKNEE) [AJ-p167]
Antibody titer with respect to human αSyn (N = 4 − 6, mean ± standard deviation) [1, 4]: 2389 ± 1399 | Antibody-inducing ability regarding the aggregated human αSyn (in words) [2]: particularly strong antibody-inducing ability | Antibody titer with respect to aggregated human αSyn (N = 4 − 6, mean ± standard deviation) [2, 4]: 1664 ± 1409

ELKLIFLHRLKRLRKRLKRKϵKKKKKDQLGKNE [AJ-εKKK-p54]
Antibody titer with respect to human αSyn, relative to control [1, 3]: 0.74 | Antibody titer with respect to aggregated human αSyn, relative to control [2, 3]: 0.88

ELKLIFLHRLKRLRKRLKRKPPDPDPKKDQLGKNE [AJ-PPDPDP-p54]
Antibody titer with respect to human αSyn, relative to control [1, 3]: 0.89 | Antibody titer with respect to aggregated human αSyn, relative to control [2, 3]: 0.88

ELKLIFLHRLKRLRKRLKRKXEAYEMPSEDG (ELKLIFLHRLKRLRKRLKRK[Ahx]EAYEMPSEDG) [AJ-p283, AJ peptide linked to p283 via ε-Acp (X)]
Antibody titer with respect to human αSyn (N = 4 − 6, mean ± standard deviation) [1, 4]: 2304 ± 1289 | Antibody-inducing ability regarding the aggregated human αSyn (in words) [2]: particularly strong antibody-inducing ability | Antibody titer with respect to aggregated human αSyn (N = 4 − 6, mean ± standard deviation) [2, 4]: 1152 ± 644

ELKLIFLHRLKRLRKRLKRKαKKKDQLGKNE [AJ-αK-p54]
Antibody titer with respect to human αSyn, relative to control [1, 3]: 0.99 | Antibody titer with respect to aggregated human αSyn, relative to control [2, 3]: 0.92

ELKLIFLHRLKRLRKRLKRKPPDPDPEAYEMPSEE [AJ-PPDPDP-p150]
Antibody titer with respect to human αSyn, relative to control [1, 3]: 1.33 | Antibody titer with respect to aggregated human αSyn, relative to control [2, 3]: 1.37

ELKLIFLHRLKRLRKRLKRKXDAYEMPSEEG (ELKLIFLHRLKRLRKRLKRK[Ahx]DAYEMPSEEG) [AJ-p276]
Antibody titer with respect to human αSyn (N = 4 − 6, mean ± standard deviation) [1, 4]: 1792 ± 512 | Antibody titer with respect to aggregated human αSyn (N = 4 − 6, mean ± standard deviation) [2, 4]: 896 ± 256

ELKLIFLHRLKRLRKRLKRKXKKDELGKDE (ELKLIFLHRLKRLRKRLKRK[Ahx]KKDELGKDE) [AJ-p298]
Antibody titer compared with control conjugate (in words) [1]: same level of an antibody titer | Antibody titer with respect to human αSyn, relative to control [1, 5]: 0.82 | Antibody titer with respect to aggregated human αSyn, relative to control [2, 5]: 0.93

ELKLIFLHRLKRLRKRLKRKXEAAEMPSEEG (ELKLIFLHRLKRLRKRLKRK[Ahx]EAAEMPSEEG) [AJ-p244]
Antibody titer compared with control conjugate (in words) [1]: same level of an antibody titer | Antibody titer with respect to human αSyn, relative to control [1, 5]: 1.06 | Antibody titer with respect to aggregated human αSyn, relative to control [2, 5]: 1.10

ELKLIFLHRLKRLRKRLKRKXDMPVDPDN (ELKLIFLHRLKRLRKRLKRK[Ahx]DMPVDPDN) [AJ-DMPVDPDN, reference compound]
Induction of the antibody to human αSyn (in words) ([1]; Example 4, balb/c mice): very weak antibody-inducing effect | Antibody titer with respect to human αSyn (mean ± standard deviation) [1, 6]: 168 ± 122 | Induction of the antibody to aggregated human αSyn (in words) ([2]; Example 4, balb/c mice): very weak antibody-inducing effect | Antibody titer with respect to aggregated human αSyn (mean ± standard deviation) [2, 6]: 358 ± 140

ELKLIFLHRLKRLRKRLKRKαKEAYEMPSEE [AJ-αK-p150]
Antibody titer with respect to human αSyn, relative to control [1, 3]: 0.95 | Antibody titer with respect to aggregated human αSyn, relative to control [2, 3]: 1.05

ELKLIFLHRLKRLRKRLKRKEAAAKEAYEMPSEE [AJ-EAAAK-p150]
Antibody titer with respect to human αSyn, relative to control [1, 3]: 1.14 | Antibody titer with respect to aggregated human αSyn, relative to control [2, 3]: 1.16

KKDQLGKNE-C-KLH (KKDQLGKNEC-{KLH}) [p54-KLH, KLH-human αSyn peptide conjugate]
Induction of the antibody to human αSyn (in words) ([1]; Example 3, mice): the antibody to human αSyn was induced | Antibody titer (N = 4 − 6, mean ± standard deviation) with respect to human αSyn [1]: 3072 ± 2748

KLH-C-KKDQLGKNE ({KLH}-CKKDQLGKNE) [KLH-p54, KLH-human αSyn peptide conjugate]
Induction of the antibody to human αSyn (in words) ([1]; Example 3, mice): the antibody to human αSyn was induced | Antibody titer (N = 4 − 6, mean ± standard deviation) with respect to human αSyn [1]: 4096 ± 2243

ELKLIFLHRLKRLRKRLKRKXKKNQLGKND (ELKLIFLHRLKRLRKRLKRK[Ahx]KKNQLGKND) [AJ-p272]
Antibody titer with respect to human αSyn (N = 4 − 6, mean ± standard deviation) [1, 4]: 4096 ± 2896 | Antibody-inducing ability regarding the aggregated human αSyn (in words) [2]: particularly strong antibody-inducing ability | Antibody titer with respect to aggregated human αSyn (N = 4 − 6, mean ± standard deviation) [2, 4]: 1536 ± 1724

ELKLIFLHRLKRLRKRLKRKDDAKKKKDQLGKNE [AJ-DDAKK-p54]
Antibody titer with respect to human αSyn, relative to control [1, 3]: 1.03 | Antibody titer with respect to aggregated human αSyn, relative to control [2, 3]: 0.98

KLH-C-ELKLIFLHRLKRLRKRLKRKXKKDQLGKNE ({KLH}-CELKLIFLHRLKRLRKRLKRK[Ahx]KKDQLGKNE) [KLH-AJ-p54, KLH-modified AJ-human αSyn peptide conjugate, KLH linked via cysteine to the N-terminal]
Induction of the antibody to human αSyn (in words) ([1]; Example 3, mice): induced to the same extent | Antibody titer (N = 4 − 6, mean ± standard deviation) with respect to human αSyn [1]: 1707 ± 1240
